The source of these data is US12606544B2, “JAK1 selective kinase inhibitor” (DIZAL (JIANGSU) PHARMACEUTICAL CO., LTD., priority 2019, dated 2026).

Structures are written as SMILES. pIC50: −log10 of the molar value. Where only a bound is given, the exact number is not on record here.

The target in series [1] is T1, JAK1 (Homo sapiens, UniProt P23458).
T1 construct: purchased Carna Biosciences
Description: Lance Ultra Kinase Assay, recombinant JAK1. Format: biochemical. To be noted: 5 mM ATP. An outline of the steps: (§1)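 Each recombinant kinase preincubated with or without compound 15 min at room temperature, then reaction started with 5 mM ATP and substrate peptide for 60 min. Stopped with EDTA-containing detection mix; TR-FRET read at ex 320 nm, 665/615 nm emission ratio taken as kinase activity.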

The target in series [2] is T2, JAK2 (Homo sapiens, UniProt O60674).
T2 construct: purchased Carna Biosciences
T2 sequence (O60674 whole entry): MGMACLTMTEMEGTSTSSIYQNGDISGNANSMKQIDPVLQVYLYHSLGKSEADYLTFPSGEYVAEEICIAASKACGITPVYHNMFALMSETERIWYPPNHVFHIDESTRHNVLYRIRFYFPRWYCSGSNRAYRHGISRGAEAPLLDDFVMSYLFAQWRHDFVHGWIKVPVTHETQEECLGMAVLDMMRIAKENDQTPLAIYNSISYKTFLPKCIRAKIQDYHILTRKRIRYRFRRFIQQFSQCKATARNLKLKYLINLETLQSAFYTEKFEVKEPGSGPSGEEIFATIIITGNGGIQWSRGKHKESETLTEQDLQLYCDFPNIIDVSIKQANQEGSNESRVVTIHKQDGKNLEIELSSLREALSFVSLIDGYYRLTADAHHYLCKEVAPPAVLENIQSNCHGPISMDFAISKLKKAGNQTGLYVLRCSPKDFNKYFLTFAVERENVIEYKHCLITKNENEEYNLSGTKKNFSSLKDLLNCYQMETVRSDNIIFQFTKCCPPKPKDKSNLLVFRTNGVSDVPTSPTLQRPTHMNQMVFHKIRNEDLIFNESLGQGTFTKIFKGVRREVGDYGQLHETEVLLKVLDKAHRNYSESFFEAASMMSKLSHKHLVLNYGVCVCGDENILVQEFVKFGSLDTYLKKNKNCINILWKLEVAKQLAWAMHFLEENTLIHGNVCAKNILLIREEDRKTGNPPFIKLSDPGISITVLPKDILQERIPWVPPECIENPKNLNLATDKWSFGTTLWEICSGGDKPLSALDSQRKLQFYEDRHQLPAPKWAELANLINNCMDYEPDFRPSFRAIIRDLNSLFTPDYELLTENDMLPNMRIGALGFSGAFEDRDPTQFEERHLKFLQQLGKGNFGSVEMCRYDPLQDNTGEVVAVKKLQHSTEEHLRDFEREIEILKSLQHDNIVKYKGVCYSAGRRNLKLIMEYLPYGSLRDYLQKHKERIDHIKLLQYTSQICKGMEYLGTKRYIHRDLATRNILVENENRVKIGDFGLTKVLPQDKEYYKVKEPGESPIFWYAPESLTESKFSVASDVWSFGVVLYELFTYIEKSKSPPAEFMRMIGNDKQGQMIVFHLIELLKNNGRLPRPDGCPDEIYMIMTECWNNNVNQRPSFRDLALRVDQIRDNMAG
Description: Lance Ultra Kinase Assay, recombinant JAK2. As to conditions: 5 mM ATP. Format: biochemical. An outline of the steps: as §1

Series [3] deals with T3, JAK3 (Homo sapiens, UniProt P52333).
T3 construct: purchased Carna Biosciences
T3 sequence (P52333 1-1124): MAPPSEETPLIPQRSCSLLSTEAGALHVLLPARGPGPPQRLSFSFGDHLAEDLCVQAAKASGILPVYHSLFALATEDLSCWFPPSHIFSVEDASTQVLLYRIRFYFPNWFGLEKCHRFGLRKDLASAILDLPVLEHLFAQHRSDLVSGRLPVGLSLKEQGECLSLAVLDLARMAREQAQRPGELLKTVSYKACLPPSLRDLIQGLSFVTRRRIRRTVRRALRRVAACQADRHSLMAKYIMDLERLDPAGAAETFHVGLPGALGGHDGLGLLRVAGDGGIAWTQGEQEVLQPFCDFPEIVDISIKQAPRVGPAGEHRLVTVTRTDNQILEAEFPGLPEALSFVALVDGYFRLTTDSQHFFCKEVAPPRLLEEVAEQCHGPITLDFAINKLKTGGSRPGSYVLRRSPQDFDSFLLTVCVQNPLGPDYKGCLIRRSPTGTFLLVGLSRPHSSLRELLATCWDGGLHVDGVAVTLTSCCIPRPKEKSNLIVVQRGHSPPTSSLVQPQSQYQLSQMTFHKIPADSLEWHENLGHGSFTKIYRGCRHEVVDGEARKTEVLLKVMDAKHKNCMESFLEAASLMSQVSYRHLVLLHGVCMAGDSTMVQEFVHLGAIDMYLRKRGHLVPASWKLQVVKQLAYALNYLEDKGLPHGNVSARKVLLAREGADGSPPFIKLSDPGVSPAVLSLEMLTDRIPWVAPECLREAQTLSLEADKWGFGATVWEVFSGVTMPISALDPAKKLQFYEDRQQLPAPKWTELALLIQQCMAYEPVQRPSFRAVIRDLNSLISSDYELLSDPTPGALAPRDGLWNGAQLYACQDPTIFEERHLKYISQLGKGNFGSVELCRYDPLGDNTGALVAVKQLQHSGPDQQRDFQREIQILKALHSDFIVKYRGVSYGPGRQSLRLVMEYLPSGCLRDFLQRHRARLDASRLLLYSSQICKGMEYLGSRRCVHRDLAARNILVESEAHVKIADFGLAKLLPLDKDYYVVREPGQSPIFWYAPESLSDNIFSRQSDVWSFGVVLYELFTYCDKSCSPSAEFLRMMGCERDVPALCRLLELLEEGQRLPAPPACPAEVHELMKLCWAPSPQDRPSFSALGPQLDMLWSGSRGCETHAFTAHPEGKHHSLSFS
Description: Lance Ultra Kinase Assay, recombinant JAK3. As to conditions: 5 mM ATP. Format: biochemical. An outline of the steps:
as §1

The target of series [4] is T4, TYK2 (Homo sapiens, UniProt P29597).
T4 construct: purchased Carna Biosciences
T4 sequence (P29597 whole entry): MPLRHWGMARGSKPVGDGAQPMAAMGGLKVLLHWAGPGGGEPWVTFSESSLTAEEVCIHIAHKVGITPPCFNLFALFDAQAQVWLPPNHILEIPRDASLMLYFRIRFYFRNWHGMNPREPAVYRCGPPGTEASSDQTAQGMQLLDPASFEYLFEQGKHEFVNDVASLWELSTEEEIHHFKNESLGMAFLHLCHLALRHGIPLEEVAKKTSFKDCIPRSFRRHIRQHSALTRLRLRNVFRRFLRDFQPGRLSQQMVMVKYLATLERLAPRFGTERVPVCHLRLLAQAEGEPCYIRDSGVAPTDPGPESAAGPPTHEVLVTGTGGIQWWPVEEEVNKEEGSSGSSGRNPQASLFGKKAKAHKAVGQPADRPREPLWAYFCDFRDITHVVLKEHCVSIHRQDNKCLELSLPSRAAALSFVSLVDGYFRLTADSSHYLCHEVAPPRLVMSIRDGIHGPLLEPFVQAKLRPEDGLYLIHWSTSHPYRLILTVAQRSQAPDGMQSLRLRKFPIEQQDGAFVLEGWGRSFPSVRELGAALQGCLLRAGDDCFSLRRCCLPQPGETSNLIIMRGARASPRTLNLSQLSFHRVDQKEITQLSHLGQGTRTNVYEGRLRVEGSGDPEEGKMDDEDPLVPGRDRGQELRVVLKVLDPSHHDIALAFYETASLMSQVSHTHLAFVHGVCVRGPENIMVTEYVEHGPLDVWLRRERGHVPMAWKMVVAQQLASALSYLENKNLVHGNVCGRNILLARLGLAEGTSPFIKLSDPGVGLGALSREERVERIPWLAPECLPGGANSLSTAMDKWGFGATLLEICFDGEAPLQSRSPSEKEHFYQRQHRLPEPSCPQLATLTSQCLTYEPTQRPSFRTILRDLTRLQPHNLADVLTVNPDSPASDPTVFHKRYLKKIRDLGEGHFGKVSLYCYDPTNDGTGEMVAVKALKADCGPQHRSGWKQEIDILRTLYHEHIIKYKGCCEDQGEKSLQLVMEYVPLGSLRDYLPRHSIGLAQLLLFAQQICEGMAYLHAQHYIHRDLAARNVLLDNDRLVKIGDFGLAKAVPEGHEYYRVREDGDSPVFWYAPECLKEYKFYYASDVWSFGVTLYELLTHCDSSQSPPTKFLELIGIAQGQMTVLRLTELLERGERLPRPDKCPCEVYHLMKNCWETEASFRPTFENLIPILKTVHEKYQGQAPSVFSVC
Kind of series: Lance Ultra Kinase Assay, recombinant TYK2. To be noted: 5 mM ATP. Format: biochemical. An outline of the steps: as §1

Series [5] concerns phosphorylation of STAT6. Kind of series: Cellular p-STAT6 assay, IL-13 stimulated THP-1 cells, flow cytometry. Format: cell-based. As to conditions: Homo sapiens, THP-1, THP-1 cells, IL-13 10 ng/ml; read-out: pSTAT6 IC50. In outline: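 THP-1 cells (2×10^5/well, RPMI1640 + 10% FBS) preincubated 60 min at room temperature with compound (1 μM to 0.3 nM), then stimulated 30 min with IL-13 at 10 ng/ml. Fixed, methanol-permeabilized cells stained with PE anti-pSTAT6 and read by flow cytometry; IC50 from dose-response curves.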

Series [6] is described as follows: Metabolic stability in rat hepatocytes. Format: in vitro ADME. As to conditions: 1 μM compound, male rat hepatocytes.
Series [7] is described as follows: Metabolic stability in human liver microsome. Format: in vitro ADME. As to conditions: human, pooled human liver microsomes, pH 7.4, 1 μM compound, 1 mg/mL microsomes, NADPH.
Series [8] is described as follows: Pharmacokinetics in plasma and lung in mouse, intratracheal instillation. To be noted: male CD1 mice; for half-life / Kp at 5 min / Kp at 1 h: mouse; for half-life: lung, intratracheal instillation, read-out: Lung T1/2 (converted); for Kp at 5 min / Kp at 1 h: lung/plasma, other: intratracheal instillation; for Kp at 5 min: read-out: Conc. Ratio (Lung/Plasma) 5 min; for Kp at 1 h: read-out: Conc. Ratio (Lung/Plasma) 1 hr. Format: in vivo. As to the method:
Lung PK of the compounds were tested via Intratracheal (IT) instillation administration in male CD1 Mice. Plasma and lung levels of test compounds and ratios thereof were determined in the following manner. Test compounds were dosed cassettely as the formulation of 0.4 mg/mL suspension of 0.5% HPMC, 0.1% Tween 80 in saline. The animal was anesthetized using 5% of isoflurane for 5 min, open its mouth and take out the tongue, the light was focused on the neck of the mouse and localize the trachea, and the syringe was inserted into the trachea while the trachea is in the open state, and the test compounds were inject into the trachea. At various time points (typically 5 min, 1, 4, 24 hours) post dosing, approximately 0.250 mL blood samples were removed via cardiac puncture and intact lungs were excised from the mice. Each blood sample was transferred into plastic micro centrifuge tubes containing K2EDTA. Blood samples were then centrifuged (Eppendorf centrifuge, 5804R) for 4 minutes at approximately 12,000 rpm at 4° C. to collect plasma. The mice will be fully exsanguinated prior to tissue collection. Lung samples will be collected at adopted time point and the whole lung were weighted and homogenized. Concentrations of test compounds in the plasma and lung samples were analyzed using a LC-MS/MS method. WinNonlin (Phoenix™) or other similar software will be used for pharmacokinetic calculations.

T1 sequence (P23458 whole entry): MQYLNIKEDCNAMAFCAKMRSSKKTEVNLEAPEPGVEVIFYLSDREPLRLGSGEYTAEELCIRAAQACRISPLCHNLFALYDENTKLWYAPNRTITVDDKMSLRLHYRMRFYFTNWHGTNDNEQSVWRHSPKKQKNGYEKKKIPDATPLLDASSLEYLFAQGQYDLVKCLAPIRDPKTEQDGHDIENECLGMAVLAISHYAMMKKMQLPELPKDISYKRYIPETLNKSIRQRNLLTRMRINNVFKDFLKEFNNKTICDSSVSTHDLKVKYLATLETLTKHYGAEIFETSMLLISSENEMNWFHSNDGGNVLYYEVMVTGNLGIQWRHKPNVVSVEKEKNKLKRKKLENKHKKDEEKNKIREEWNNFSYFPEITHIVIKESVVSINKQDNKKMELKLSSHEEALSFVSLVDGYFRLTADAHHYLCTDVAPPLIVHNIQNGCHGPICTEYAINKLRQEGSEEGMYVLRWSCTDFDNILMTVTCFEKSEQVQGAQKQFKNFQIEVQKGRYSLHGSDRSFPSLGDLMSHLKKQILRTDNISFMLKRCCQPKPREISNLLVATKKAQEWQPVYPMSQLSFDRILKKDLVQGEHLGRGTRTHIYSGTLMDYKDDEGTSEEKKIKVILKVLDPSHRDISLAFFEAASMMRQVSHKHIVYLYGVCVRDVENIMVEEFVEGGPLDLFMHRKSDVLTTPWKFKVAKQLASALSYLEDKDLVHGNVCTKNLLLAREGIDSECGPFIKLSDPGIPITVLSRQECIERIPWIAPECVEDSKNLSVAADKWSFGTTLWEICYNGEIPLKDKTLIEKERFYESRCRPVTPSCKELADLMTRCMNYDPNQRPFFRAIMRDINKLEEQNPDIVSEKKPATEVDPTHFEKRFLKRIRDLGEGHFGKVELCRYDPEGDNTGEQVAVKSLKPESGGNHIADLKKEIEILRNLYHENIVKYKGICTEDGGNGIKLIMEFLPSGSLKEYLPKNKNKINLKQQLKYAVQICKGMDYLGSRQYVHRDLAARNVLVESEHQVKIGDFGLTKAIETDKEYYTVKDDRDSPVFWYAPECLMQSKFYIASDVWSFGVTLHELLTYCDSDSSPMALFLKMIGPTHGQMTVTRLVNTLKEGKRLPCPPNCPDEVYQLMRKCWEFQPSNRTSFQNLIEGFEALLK

As for `COC[C@H](C(=O)Nc1cccc2c(-c3nc(Nc4ccnc(CO)c4)ncc3F)c[nH]c12)N1CCN(C)CC1` [Example 2, (R)-N-(3-(5-fluoro-2-((2-(hydroxymethyl)pyridin-4-yl)amino)pyrimidin-4-yl)-1H-indol-7-yl)-3-methoxy-2-(4-methylpiperazin-1-yl)propanamide], the negative-log IC50 (pIC50) (in general, −log10 of the IC50, conventionally taken in molar units) in series [1] is 9.60. In addition, in series [2], the negative-log IC50 (pIC50) is 6.69. Further, in series [3], the negative logarithm of the IC50 (pIC50) is < 5.00. In series [4], the pIC50 was 5.96. Also, the pIC50 in series [5] was 8.37. In series [6], the “Rat Hepatocyte CLint” value is recorded as 9.5 μL/min/10^6 cells. The intrinsic clearance (microsomal CLint) (commonly a measure of how fast metabolising enzymes remove a compound, apart from limits set by blood flow) at 1 μM in series [7] was 10.6 µL/min/mg. For the same molecule, in series [8], the “% Dose in Lung 5 min” value stood at 18.1%, the “% Dose in Lung 1 hr” value was determined as 13.4%, the half-life was 29.9 h and the Kp at 5 min turned out to be 399. Also, the Kp at 1 h in series [8] is 3260.

Consider `CCC(=O)Nc1ccc(Nc2ncc(F)c(-c3c[nH]c4c(NC(=O)[C@@H](COC)N5CCN(C)CC5)cccc34)n2)cn1` [Example 5, (R)-N-(3-(5-fluoro-2-((6-propionamidopyridin-3-yl)amino)pyrimidin-4-yl)-1H-indol-7-yl)-3-methoxy-2-(4-methylpiperazin-1-yl)propanamide], for which the pIC50 in series [1] is 9.72. The pIC50 in series [2] is 6.57. In series [3], the pIC50 is < 5.00. Besides, the pIC50 in series [4] was 6.12. Also, the negative-log IC50 (pIC50) in series [5] was 8.29. In series [6], the “Rat Hepatocyte CLint” value was found to be 11.0 μL/min/10^6 cells. For the same molecule, in series [7], the microsomal CLint at 1 μM is 73.9 µL/min/mg. In addition, in series [8], the “% Dose in Lung 5 min” value was 101.6%, the “% Dose in Lung 1 hr” value was found to be 54.0%, the half-life is 6.1 h and the Kp at 5 min was 2100. Further, the Kp at 1 h in series [8] was 2940.

Consider `COC[C@H](C(=O)Nc1cccc2c(-c3nc(Nc4ccc(NC(=O)CO)nc4)ncc3F)c[nH]c12)N1CCN(C)CC1` [Example 8, (R)-N-(3-(5-fluoro-2-((6-(2-hydroxyacetamido)pyridin-3-yl)amino)pyrimidin-4-yl)-1H-indol-7-yl)-3-methoxy-2-(4-methylpiperazin-1-yl)propanamide], for which the pIC50 is 9.80 in series [1]; 6.74 in series [2]; < 5.00 in series [3]; 6.07 in series [4]; 8.21 in series [5]. Further, the “Rat Hepatocyte CLint” value in series [6] came out at 38.4 μL/min/10^6 cells. The same molecule gave a microsomal CLint at 1 μM in series [7] of 7.2 µL/min/mg. The “% Dose in Lung 5 min” value in series [8] was 62.7%. Moreover, the “% Dose in Lung 1 hr” value in series [8] is 13.4%. The half-life in series [8] is 3.5 h. Moreover, the Kp at 5 min in series [8] is 296. The Kp at 1 h in series [8] was determined as 1590.

In the case of `COC[C@H](C(=O)Nc1cccc2c(-c3nc(Nc4ccc5sc(CO)nc5c4)ncc3F)c[nH]c12)N1CCN(C)CC1` [Example 38, (R)-N-(3-(5-fluoro-2-((2-(hydroxymethyl)benzo[d]thiazol-5-yl)amino)pyrimidin-4-yl)-1H-indol-7-yl)-3-methoxy-2-(4-methylpiperazin-1-yl)propanainide], the pIC50 was 9.89 in series [1]; 7.19 in series [2]; < 5.00 in series [3]; 6.14 in series [4]; 7.93 in series [5]. Further, in series [6], the “Rat Hepatocyte CLint” value is given as 117.1 μL/min/10^6 cells. Further, the intrinsic clearance (microsomal CLint) at 1 μM in series [7] is 10.9 µL/min/mg. Besides, the “% Dose in Lung 5 min” value in series [8] is listed as 79.9%. Moreover, in series [8], the “% Dose in Lung 1 hr” value turned out to be 19.4%. Further, the half-life in series [8] is 3.9 h. Moreover, in series [8], the Kp at 5 min is 965. In series [8], the Kp at 1 h was 1780.
